According to ChEMBL document CHEMBL3885861, “Open TG-GATES”:

Species on record: Rattus norvegicus
Assay: Open TG-GATES - Regimen: Single
Type: toxicity, organism-based, Sprague-Dawley
Parameters: regimen Single, gender Male, age 6 weeks
Details: in vivo, ip, route intraperitoneal injection; for APTT / Bas / Eos / Fbg / Hb / Lym / MCH / MCHC / Mono / Neu / PT / Plat / RBC / Ret / WBC / Ht / MCV: tissue Blood; for KIDNEY_L / KIDNEY_R / KIDNEY_TOTAL: tissue Kidney; for LIVER: tissue Liver; for ALP / ALT / AST / BUN / CRE / Ca / DBIL / GLC / IP / K / LDH / PL / RALB / TBIL / TC / TG / TP / gamma-GTP / Na: tissue Plasma
[1] = 0.3 mg/kg, 3 h, dose 300 ug/Kg, dose level Middle
[2] = 0.3 mg/kg, 6 h, dose 300 ug/Kg, dose level Middle
[3] = 0.3 mg/kg, 9 h, dose 300 ug/Kg, dose level Middle
[4] = 0.3 mg/kg, 24 h, dose 300 ug/Kg, dose level Middle
[5] = 3 mg/kg, 3 h, dose 3000 ug/Kg, dose level High
[6] = 3 mg/kg, 6 h, dose 3000 ug/Kg, dose level High
[7] = 3 mg/kg, 9 h, dose 3000 ug/Kg, dose level High
[8] = 3 mg/kg, 24 h, dose 3000 ug/Kg, dose level High

LPS
APTT [1]: 22.5 s
Bas [1]: 0%
Eos [1]: 0.3%
Fbg [1]: 152.7 mg/dL
Hb [1]: 13.6 g/dL
Lym [1]: 75%
MCH [1]: 21.8 pg
MCHC [1]: 32.9%
Mono [1]: 0.7%
Neu [1]: 24%
PT [1]: 17.9 s
Plat [1]: 65.5 x10_4/uL
RBC [1]: 625.3 x10_4/ul
Ret [1]: 9.1%
WBC [1]: 24.9 x10_2/uL
KIDNEY_L [1]: 1 g
KIDNEY_R [1]: 1 g
KIDNEY_TOTAL [1]: 2 g
LIVER [1]: 8.6 g
ALP [1]: 1337.3 IU/L
ALT [1]: 67.3 IU/L
AST [1]: 171 IU/L
BUN [1]: 12.7 mg/dL
CRE [1]: 0.2 mg/dL
Ca [1]: 9.7 mg/dL
DBIL [1]: 0.0533 mg/dL
GLC [1]: 138.7 mg/dL
IP [1]: 9.3 mg/dL
K [1]: 3.9 meq/L
LDH [1]: 487.3 IU/L
PL [1]: 134 mg/dL
RALB [1]: 2.2 g/dL
TBIL [1]: 0.2 mg/dL
TC [1]: 68.3 mg/dL
TG [1]: 96 mg/dL
TP [1]: 5 g/dL
gamma-GTP [1]: 1 IU/L
TERMINAL_BW [2]: 193.4 g
APTT [2]: 28.2 s
Bas [2]: 0%
Eos [2]: 1%
Fbg [2]: 185.7 mg/dL
Hb [2]: 13.6 g/dL
Ht [2]: 40.7%
Lym [2]: 56%
MCHC [2]: 33.3%
MCV [2]: 64.7 fL
Mono [2]: 1%
Neu [2]: 41.3%
PT [2]: 17.8 s
Plat [2]: 56 x10_4/uL
RBC [2]: 629.3 x10_4/ul
Ret [2]: 9.3%
WBC [2]: 34.8 x10_2/uL
KIDNEY_L [2]: 0.9 g
KIDNEY_R [2]: 0.9 g
KIDNEY_TOTAL [2]: 1.9 g
LIVER [2]: 8 g
ALP [2]: 1219 IU/L
ALT [2]: 143.7 IU/L
AST [2]: 272 IU/L
BUN [2]: 18.3 mg/dL
CRE [2]: 0.2 mg/dL
Ca [2]: 9.7 mg/dL
DBIL [2]: 0.1 mg/dL
GLC [2]: 140 mg/dL
IP [2]: 9.9 mg/dL
K [2]: 4 meq/L
LDH [2]: 1262.7 IU/L
Na [2]: 139.7 meq/L
PL [2]: 163.3 mg/dL
RALB [2]: 2.2 g/dL
TBIL [2]: 0.4 mg/dL
TC [2]: 103.7 mg/dL
TG [2]: 65.3 mg/dL
TP [2]: 5 g/dL
gamma-GTP [2]: 2.3 IU/L
TERMINAL_BW [3]: 188.8 g
APTT [3]: 22.1 s
Bas [3]: 0%
Eos [3]: 1%
Fbg [3]: 248.7 mg/dL
Hb [3]: 13.8 g/dL
Lym [3]: 51.3%
MCV [3]: 64.7 fL
Mono [3]: 1%
Neu [3]: 46.7%
Plat [3]: 59.9 x10_4/uL
RBC [3]: 643.7 x10_4/ul
Ret [3]: 8.7%
WBC [3]: 71 x10_2/uL
KIDNEY_L [3]: 0.9 g
KIDNEY_R [3]: 0.9 g
KIDNEY_TOTAL [3]: 1.9 g
LIVER [3]: 7.2 g
ALP [3]: 1291 IU/L
ALT [3]: 126.3 IU/L
AST [3]: 246.7 IU/L
BUN [3]: 16.3 mg/dL
CRE [3]: 0.2 mg/dL
Ca [3]: 10 mg/dL
DBIL [3]: 0.0533 mg/dL
GLC [3]: 139.3 mg/dL
IP [3]: 9.6 mg/dL
K [3]: 4.1 meq/L
LDH [3]: 1570.3 IU/L
Na [3]: 140.3 meq/L
PL [3]: 166.3 mg/dL
RALB [3]: 2.4 g/dL
TBIL [3]: 0.2 mg/dL
TC [3]: 119 mg/dL
TG [3]: 38 mg/dL
TP [3]: 5.4 g/dL
gamma-GTP [3]: 4.3 IU/L
TERMINAL_BW [4]: 189.4 g
APTT [4]: 19.4 s
Bas [4]: 0%
Eos [4]: 1%
Fbg [4]: 519 mg/dL
Hb [4]: 13.6 g/dL
Lym [4]: 61.7%
MCH [4]: 20.6 pg
MCHC [4]: 32.9%
Mono [4]: 2.7%
Neu [4]: 33.3%
PT [4]: 14.6 s
Plat [4]: 53.7 x10_4/uL
RBC [4]: 660.3 x10_4/ul
Ret [4]: 6.6%
WBC [4]: 82.4 x10_2/uL
KIDNEY_L [4]: 0.9 g
KIDNEY_R [4]: 0.9 g
KIDNEY_TOTAL [4]: 1.8 g
LIVER [4]: 9.2 g
ALP [4]: 1258 IU/L
ALT [4]: 36.7 IU/L
AST [4]: 71 IU/L
BUN [4]: 18.3 mg/dL
CRE [4]: 0.2 mg/dL
DBIL [4]: 0.01 mg/dL
GLC [4]: 181.3 mg/dL
IP [4]: 9.2 mg/dL
K [4]: 4.7 meq/L
LDH [4]: 64 IU/L
PL [4]: 176 mg/dL
RALB [4]: 2.7 g/dL
TBIL [4]: 0.07 mg/dL
TC [4]: 107 mg/dL
TG [4]: 47.7 mg/dL
TP [4]: 5.9 g/dL
gamma-GTP [4]: 1.7 IU/L
TERMINAL_BW [5]: 197.5 g
Bas [5]: 0.3%
Eos [5]: 0%
Fbg [5]: 186.3 mg/dL
Ht [5]: 40.6%
Lym [5]: 62.3%
MCV [5]: 66.6 fL
Mono [5]: 2%
Neu [5]: 34.7%
PT [5]: 17.1 s
Plat [5]: 83.4 x10_4/uL
RBC [5]: 608.7 x10_4/ul
Ret [5]: 9.7%
WBC [5]: 42.6 x10_2/uL
KIDNEY_L [5]: 0.9 g
KIDNEY_R [5]: 0.9 g
KIDNEY_TOTAL [5]: 1.9 g
LIVER [5]: 9.2 g
ALP [5]: 1326.7 IU/L
ALT [5]: 48 IU/L
AST [5]: 122.3 IU/L
BUN [5]: 15 mg/dL
CRE [5]: 0.2 mg/dL
Ca [5]: 10 mg/dL
DBIL [5]: 0.0233 mg/dL
GLC [5]: 148.7 mg/dL
K [5]: 4.1 meq/L
LDH [5]: 229.3 IU/L
RALB [5]: 2.2 g/dL
TBIL [5]: 0.0667 mg/dL
TC [5]: 78.3 mg/dL
TG [5]: 143 mg/dL
TP [5]: 4.8 g/dL
gamma-GTP [5]: 1.7 IU/L
TERMINAL_BW [6]: 192.5 g
APTT [6]: 25.9 s
Bas [6]: 0%
Eos [6]: 1%
Fbg [6]: 158.3 mg/dL
Lym [6]: 65.3%
MCHC [6]: 32.8%
MCV [6]: 64.5 fL
Mono [6]: 1%
Neu [6]: 31.7%
PT [6]: 18.2 s
Plat [6]: 47.4 x10_4/uL
RBC [6]: 627.3 x10_4/ul
Ret [6]: 8.9%
WBC [6]: 21.1 x10_2/uL
KIDNEY_L [6]: 1 g
KIDNEY_R [6]: 0.9 g
KIDNEY_TOTAL [6]: 1.9 g
LIVER [6]: 7.6 g
ALP [6]: 1321.7 IU/L
ALT [6]: 378.7 IU/L
AST [6]: 499.3 IU/L
BUN [6]: 23.3 mg/dL
CRE [6]: 0.2 mg/dL
Ca [6]: 9.5 mg/dL
DBIL [6]: 0.2 mg/dL
GLC [6]: 124.3 mg/dL
IP [6]: 10.4 mg/dL
K [6]: 4.4 meq/L
LDH [6]: 2239.3 IU/L
Na [6]: 140.3 meq/L
PL [6]: 156.7 mg/dL
RALB [6]: 2.2 g/dL
TBIL [6]: 0.3 mg/dL
TC [6]: 90 mg/dL
TG [6]: 87 mg/dL
TP [6]: 4.9 g/dL
gamma-GTP [6]: 2.7 IU/L
TERMINAL_BW [7]: 188.4 g
APTT [7]: 25 s
Bas [7]: 0%
Eos [7]: 1%
Fbg [7]: 180.7 mg/dL
Ht [7]: 41.4%
Lym [7]: 56%
MCHC [7]: 32.7%
MCV [7]: 64.7 fL
Mono [7]: 1%
Neu [7]: 42%
PT [7]: 17.9 s
Plat [7]: 27.3 x10_4/uL
RBC [7]: 641 x10_4/ul
Ret [7]: 8.6%
WBC [7]: 48.1 x10_2/uL
KIDNEY_L [7]: 0.9 g
KIDNEY_R [7]: 0.9 g
KIDNEY_TOTAL [7]: 1.9 g
LIVER [7]: 7.4 g
ALP [7]: 1439.3 IU/L
ALT [7]: 320.3 IU/L
AST [7]: 534.3 IU/L
BUN [7]: 29.7 mg/dL
CRE [7]: 0.2 mg/dL
Ca [7]: 9.5 mg/dL
DBIL [7]: 0.2 mg/dL
GLC [7]: 116 mg/dL
K [7]: 4.6 meq/L
LDH [7]: 1843.3 IU/L
Na [7]: 138.3 meq/L
PL [7]: 169.7 mg/dL
RALB [7]: 2.1 g/dL
TBIL [7]: 0.4 mg/dL
TC [7]: 115.7 mg/dL
TG [7]: 117.7 mg/dL
TP [7]: 4.8 g/dL
gamma-GTP [7]: 4 IU/L
TERMINAL_BW [8]: 191.8 g
APTT [8]: 23.8 s
Bas [8]: 0.7%
Eos [8]: 1%
Fbg [8]: 336 mg/dL
Hb [8]: 12.1 g/dL
Ht [8]: 37.4%
Lym [8]: 55.3%
MCHC [8]: 32.4%
MCV [8]: 64 fL
Mono [8]: 2%
Neu [8]: 40.7%
PT [8]: 15.3 s
Plat [8]: 41.9 x10_4/uL
RBC [8]: 583.3 x10_4/ul
Ret [8]: 7.7%
WBC [8]: 99.6 x10_2/uL
KIDNEY_L [8]: 0.9 g
KIDNEY_R [8]: 1 g
KIDNEY_TOTAL [8]: 1.9 g
LIVER [8]: 8.3 g
ALP [8]: 1299 IU/L
ALT [8]: 330.3 IU/L
AST [8]: 740.3 IU/L
BUN [8]: 31.7 mg/dL
CRE [8]: 0.2 mg/dL
DBIL [8]: 0.06 mg/dL
GLC [8]: 139 mg/dL
IP [8]: 9.4 mg/dL
K [8]: 4.4 meq/L
LDH [8]: 271.7 IU/L
RALB [8]: 2.2 g/dL
TBIL [8]: 0.2 mg/dL
TC [8]: 93.3 mg/dL
TG [8]: 45.3 mg/dL
TP [8]: 4.9 g/dL
gamma-GTP [8]: 6.7 IU/L
